Measurements taken from US9365597B2, “Mitochondria-targeted inhibitors of cytochrome c peroxidase for protection from apoptosis” (Brock University, priority 2011, dated 2016).

Columns and labels:
[1] = test system: mouse embryonic cells; assay: ATP levels in mouse embryonic cells (bioluminescent kit); type: cell-based
Protocol: ATP levels in cells were measured using ATP bioluminescent somatic cell assay kit (St. Louis, Mo.) according to the manufacturer's instructions.

[2] = test system: mouse embryonic cells; assay: Superoxide production in mouse embryonic cells (dihydroethidium, flow cytometry); type: cell-based; conditions: cells with or without radiation treatment (10 Gy); 2.5 and 5 μM, 18 hrs
Protocol: Cells were γ-irradiated at a dose of 10 Gy and then incubated with different concentrations of TPP-IOA or TPP-ISA (2.5 and 5 μM) for 18 hrs. To estimate superoxide generation, cells were incubated with 5 μM of dihydroethidium (DHE) for 30 min at 37° C. Collected cells were re-suspended in phosphate buffered saline (PBS) and fluorescence of 2-hydroxyethidium was analyzed using FACScan supplied with CellQuest software. Data are means±S.D., n=3. *p<0.01 vs. control cells (without any treatment).
A superoxide-meditated oxidation-sensitive fluorogenic dye, dihydroethidium (DHE), was utilized for assessments of superoxide production. Briefly, cells were incubated with 5 μM of DHE for 30 min. Cells were collected by trypsinization and re-suspended in PBS. The fluorescence of 2-hydroxyethidium was measured using a FACScan flow cytometer (BD Biosciences, San Jose, Calif.) supplied with the CellQuest software. Mean fluorescence intensity from 10,000 cells was acquired using a 585/42-nm band-pass filter.

[3] = test system: mouse embryonic cells; assay: γ-Irradiation induced apoptosis in mouse embryonic cells (PS externalization Annexin V/PI, caspase 3/7, cyt c release); type: cell-based; conditions: for necrotic cells (PI-positive, Annexin V-positive) after irradiation and treatment / apoptotic cells (PI-negative, Annexin V-positive) after irradiation and treatment: 10 Gy; for necrotic cells (PI-positive, Annexin V-positive) after irradiation and treatment: irradiated only 12.9%; for apoptotic cells (PI-negative, Annexin V-positive) after irradiation and treatment: irradiated only 28.9%
Protocol: Mouse embryonic cells were seeded on a 35 mm dish at a cell density of 5×10^4/dish, and allowed to attach overnight. The cells were γ-irradiated at a dose of 10 Gy using a Shepherd model 143-45A irradiator (J.L. Shepherd & Associates, CA). Ten min after irradiation, different concentrations of TPP-ISA or TPP-IOA (2.5 and 5 μM) were added and cells were incubated at 37° C. in 5% CO2 for 48 h. Then, cells were harvested for measuring phosphatidylserine externalization by an Annexin V/PI kit and caspase 3/7 activity using a Caspase-Glo® 3/7 Assay kit. Data are means±S.D., n=3. *p<0.01 vs. irradiated only cells.
Phosphatidylserine externalization was determined by an Annexin V-FITC apoptosis detection kit (Biovision) according to the manufacturer's instructions.
Caspase-3/7 activity was measured using a luminescence Caspase-Glo 3/7 assay kit (Promega) according to the manufacturer's instructions.
Cells were collected after 48 h post-irradiation incubation and resuspended in lysis buffer containing 0.05% digitonin for 4 min on ice. Supernatants were collected after centrifugation for 10 min at 10,000 g. Equal amounts of protein were subject to 15% SDS-PAGE, transferred onto a nitrocellulose membrane, and probed with antibodies against cyt c (clone 7H, 8.2; C12, BD Pharmingen) or actin (Novus) (loading control) followed by horseradish peroxidase-coupled detection. The protein band profile was analysed by densitometry using Labworks image acquisition and analysis software (UVP).

[4] = test system: caspase-3 activation in S-100 from mouse embryonic cells; assay: Cell-free apoptosis system (S100): caspase-3 activation by exogenous cyt c/dATP; type: biochemical; conditions: S100, 1 mM dATP, 1 μM cyt c, 90 min
Protocol: The cytosol extracts (S100) of mouse embryonic cells were obtained as described previously^38 with minor modifications. Briefly, the cells were washed twice in cold phosphate-buffered saline, pH 7.4, and the resulting pellet was resuspended in buffer containing 25 mM HEPES-KOH, pH 7.0, 10 mM KCl, 1.5 mM MgCl2, 1 mM EDTA, 1 mM EGTA, 1 mM DTT, 0.1 mM phenylmethylsulfonyl fluoride, 0.05% digitonin, and 1% protease inhibitor mixture for 2 min at 4° C. Cells were centrifuged at 4° C. for 10 min at 10,000×g. The resulting supernatant was further centrifuged at 4° C. for 50 min at 100,000×g. The supernatant was collected as S-100 and kept at −80° C. until further use. For caspase-3 activation, S100 (5 μg of protein/μl) was incubated with 1 mM dATP and 1 μM cyt c for 90 min at 37° C. The caspase-3 activity was evaluated using Enzchek caspase-3 assay kit as described in the manufacturer's manual (Invitrogen, Carlsbad, Calif.).

[5] = test system: mouse embryonic cells; assay: Clonogenic survival of mouse embryonic cells after γ-irradiation; type: cell-based; conditions: 2.5 μM added 30 min post γ-irradiation; single-hit multi-target model; untreated 1.33±0.08
Protocol: Cells were plated in 35-mm dishes with 2 ml culture medium at the appropriate density (between 100 and 1000 cells per dish). TPP-ISA (2.5 μM) or TPP-IOA (2.5 μM) was added to the cell culture 30 min post γ-irradiation. Medium containing TPP-ISA or TPP-IOA was replaced with fresh complete culture medium after 4 hrs. Colonies were fixed and stained with 0.25% crystal violet and 10% formalin (35% v/v) in 80% methanol for 30 min after a 7-day incubation, and those with >50 cells were scored as survivors. The surviving fraction was calculated as the plating efficiency (=number of colonies counted/number of cells seeded×100%) of samples relative to that of control. The data were fitted to a single-hit multi-target model. D0—the dose needed to reduce cell surviving fraction to 37% (1/e)—was estimated from the curves fitted to evaluate the radiomitigative effects of TPP-ISA and TPP-IOA.

[6] = test system: C57BL/6NTac female mice; assay: Survival of mice after 9.25 Gy total body irradiation, cesium irradiator; type: in vivo, mouse; conditions: for radiomitigative effect (survival): i.p. 5 mg per kg, 10 min after irradiation

Row | SMILES | effect on ATP levels [1] | effect on superoxide production [2] | necrotic cells (PI-positive, Annexin V-positive) after irradiation and treatment [3] [%] | apoptotic cells (PI-negative, Annexin V-positive) after irradiation and treatment [3] [%] | decrease in the number of apoptotic cells ([3]; versus irradiated only cells) | reduction in the number of necrotic cells ([3]; versus irradiated only cells) [fold] | caspase activation caused by exogenously added cyt c [4] | D0, the dose needed to reduce cell surviving fraction to 37% (1/e) [5] | P (two-sided log-rank test), TPP-IOA versus TPP-ISA ([6]; 5 mg per kg 10 min after irradiation) | radiomitigative effect (survival) [6]
1 | CCCCCCC(C/C=C\CCCCCCCC(=O)OCCC[P+](c1ccccc1)(c1ccccc1)c1ccccc1)n1ccnc1.[Br-] (centres unmarked) [TPP-IOA] | Neither TPP-IOA nor TPP-ISA had any effect | neither TPP-IOA nor TPP-ISA had any effect | 8.2 | 14.8 | twofold | 1.6 | completely insensitive | 1.71±0.05 | 0.6389 | strong radiomitigative effect
2 | CCCCCCC(CCCCCCCCCCC(=O)OCCC[P+](c1ccccc1)(c1ccccc1)c1ccccc1)n1ccnc1.[Br-] (centres unmarked) [TPP-ISA] | Neither TPP-IOA nor TPP-ISA had any effect | neither TPP-IOA nor TPP-ISA had any effect | 7.8 | 13.9 | – | – | completely insensitive | 1.67±0.06 | – | strong radiomitigative effect
